Consider one molecule from publication PMC9322122, “Development of (4-Phenylamino)quinazoline Alkylthiourea Derivatives as Novel NF-κB Inhibitors” (Pharmaceuticals, 2022).

One data set has as its system NF-κB. Kind of data set: NF-κB luciferase reporter assay. The format is cell-based. The settings on record: Homo sapiens, NF-κB-luciferase-transfected HEK293 cells, TNFα 50 ng/mL. On the procedure: NF-κB Luciferase Reporter Vector was purchased from Signosis (Santa Clara, CA, USA) and transfected into HEK-293 cells using FuGENE HD (Promega, Fitchburg, MA, USA) following the manufacturer’s protocol. The transfected cells were incubated in serum-free DMEM for 16 h and then treated with DMSO or indicated compounds. After 3 h, cells were treated with or without 50 ng/mL of Recombinant Human TNFα Protein (R&D systems, Minneapolis, MN, USA) for another 3 h. The protein lysates were analyzed using Steady-Glo® Luciferase Assay System (Promega, Fitchburg, MA, USA) and TECAN Infinite 200 pro (Männedorf, Switzerland).
(In general: A reporter such as luciferase makes a cellular process visible.)

The target in a further data set is T1, TBK1 (Homo sapiens, UniProt Q9UHD2).
T1 construct: purchased Thermo Fisher Scientific (screening service)
T1 sequence (Q9UHD2 whole entry): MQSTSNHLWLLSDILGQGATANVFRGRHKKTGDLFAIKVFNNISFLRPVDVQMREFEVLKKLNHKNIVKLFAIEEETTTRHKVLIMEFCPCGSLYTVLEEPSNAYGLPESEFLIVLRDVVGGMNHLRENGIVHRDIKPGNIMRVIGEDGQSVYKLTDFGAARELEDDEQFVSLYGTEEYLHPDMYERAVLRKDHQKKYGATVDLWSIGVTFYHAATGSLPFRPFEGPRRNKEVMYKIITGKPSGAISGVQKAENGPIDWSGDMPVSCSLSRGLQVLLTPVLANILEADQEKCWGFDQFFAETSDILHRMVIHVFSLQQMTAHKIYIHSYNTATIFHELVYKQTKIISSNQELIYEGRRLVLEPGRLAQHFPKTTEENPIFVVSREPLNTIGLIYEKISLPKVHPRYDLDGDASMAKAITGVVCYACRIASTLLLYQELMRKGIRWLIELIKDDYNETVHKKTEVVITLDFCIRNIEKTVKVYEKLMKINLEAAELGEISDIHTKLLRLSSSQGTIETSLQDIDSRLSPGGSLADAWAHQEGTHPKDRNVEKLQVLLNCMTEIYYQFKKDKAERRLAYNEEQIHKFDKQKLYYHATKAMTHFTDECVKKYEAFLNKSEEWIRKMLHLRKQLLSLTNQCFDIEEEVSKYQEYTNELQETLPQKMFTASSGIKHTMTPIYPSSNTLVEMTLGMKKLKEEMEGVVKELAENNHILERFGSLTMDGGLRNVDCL
Put plainly: Kinase selectivity profiling (Thermo Fisher). The class given is biochemical. As to conditions: ATP 100 μM, mean of duplicates. As for the experimental part: (§1) Tabl e S1. Selectivity profiling of compound 19 ag ainst the protein kinases known to regulate the NF-kB pathway ki nase % Inhibiti on at 2 µMa […]
(§2) aScreenings were perf or med as a servi ce at Thermo Fisher Scientific at an ATP concentrat ion of 100 μM. n.i., no inhi biti on. Data represent mean values of duplicat es that differed by less t han 7%.

A further data set concerns the target T2, PRKCQ (PKC theta) (Homo sapiens, UniProt Q04759).
T2 construct: purchased Thermo Fisher Scientific (screening service)
Put plainly: Kinase selectivity profiling (Thermo Fisher). The format is biochemical. As to conditions: ATP 100 μM, n.i. = no inhibition. On the procedure: as §1, §2

Data set [1] can be described thus: Cell viability (WST-1), A549. The format is cell-based. As to conditions: human, A549 cells, mean ± SEM, n = 3. As for the experimental part:
(§3) Cells were incubated with the WST-1 reagent (Thermo Fisher Scientific, Waltham, MA, USA) at 37 °C for 2 h. The cell viability was determined by spectrophotometer at 450 nm.
In general terms: Tetrazolium dyes change colour on reduction, which living cells bring about.

Another data set deals with phospho-NF-κB p65 (S468). Put plainly: Western blot phospho-NF-κB p65 (S468) in dTHP-1 cells. The class given is cell-based, human. As to conditions: 7.5 µM; LPS-stimulated dTHP-1 cells. As for the experimental part:
(§4) Cells were lysed in the commercial RIPA Buffer (Thermo Fisher Scientific, Waltham, MA, USA) and then centrifuged at 14,000× g for 20 min. […] Antibodies used in this study were phospho-NF-κB p65 (S468; catalog no. 3039), phospho-NF-κB p65 (S536; catalog no. 3033), phospho-IKKα/β (catalog no. 2697), and IκB (catalog no. 9242) from Cell Signaling Technology (Beverly, MA, USA); GAPDH from ABclonal (catalog no. A10868; Woburn, MA, USA). The labeled signals were determined using an enhanced chemiluminescence system (UVP, Upland, CA, USA). The experiments were performed at least two times in triplicate, providing basically the same results.
(§5) The dTHP−1 cells were incubated with DMSO (0.1%), 19 (7.5 µM), or CAPE (10 µM) in medium for 3 h and then stimulated with or without LPS (0.1 µg/mL) for another 30 min. (A) Nuclear translocation of NF-κB p65 (green) was determined by immunofluorescent microscopy. Hoechst (blue) was used for nuclei staining. (B) The nuclear NF-κB p65-positive cells were quantified. (C) The levels of phospho-NF-κB p65 (S468), IκB, and GAPDH were determined by Western blot. (D) The normalized phospho-NF-κB p65 (S468) and IκB levels were quantified. All data are expressed as mean ± SEM (n = 3); ** p < 0.01 and *** p < 0.001 compared with the DMSO + LPS group.
For orientation: A western blot detects proteins with antibodies after separation by electrophoresis.

Another data set has as its system phospho-NF-κB p65 (S536). Kind of data set: Western blot phospho-NF-κB p65 (S536) in dTHP-1 cells. The format is cell-based, human. As to conditions: 7.5 µM; LPS-stimulated dTHP-1 cells. On the procedure:
as §4
(§6) The dTHP−1 cells were incubated with DMSO (0.1%), 19 (7.5 µM), or CAPE (10 µM) in medium for 3 h and then stimulated with or without LPS (0.1 µg/mL) for another 30 min. (A) The levels of phospho-NF-κB p65 (S536), phospho-IKKα/β, IκB, and GAPDH were determined by Western blot. The normalized (B) phospho-NF-κB p65 (S536), (C) phospho-IKKα/β, and (D) IκB levels were quantified. All data are expressed as mean ± SEM (n = 3); * p < 0.05 compared with the DMSO + LPS group.

For the next data set, the system named is IL-6 production. Put plainly: IL-6 production in LPS-activated dTHP-1 cells (ELISA). The format is cell-based, human. As to conditions: Homo sapiens. On the procedure: (§7) The HEK-293 (ATCC Cat# CRL-1573, RRID:CVCL_0045) and human monocytic THP−1 cells (ATCC Cat# TIB-202, RRID:CVCL_0006) were, respectively, cultured in DMEM and RPMI 1640 media supplemented with 10% fetal bovine serum, 2 mM L-glutamine, and 1× Antibiotic-Antimycotic at 37 °C in a humidified incubator with 5% CO2. THP−1 cells were differentiated by 100 nM phorbol-12-myristate-13-acetate (PMA) for 4 h and then rested for 44 h as dTHP−1 cells.
(§8) The dTHP−1 cells were treated with indicated compounds for 3 h and then activated with or without 100 ng/mL lipopolysaccharide (LPS; E. coli 0111:B4) for another 24 h. The levels of human IL-6 and TNFα in supernatants were measured by DuoSet® ELISA Development System (R&D systems, Minneapolis, MN, USA) according to the manufacturer’s protocol.

Data set [2] is described as follows: Cell viability (WST-1), HEK293. The format is cell-based. As to conditions: human, HEK293 cells, mean ± SEM, n = 3. On the procedure: as §3
Another data set has as its system NF-κB p65. Kind of data set: Nuclear translocation of NF-κB p65, immunofluorescent staining. The class given is cell-based, human. The settings on record: 7.5 µM, 3 h, then LPS 0.1 µg/mL 30 min; dTHP-1 cells. On the procedure: Cells were fixed with 4% formaldehyde and then incubated with 5% goat serum. The intracellular location of NF-κB p65 was determined using primary antibodies against NF-κB p65 (Cell Signaling Technology, Beverly, MA, USA) and FITC-conjugated secondary antibody. Nuclei were counterstained with Hoechst (1 µg/mL). Images were obtained by fluorescent microscopy (OLYMPUS IX 81; Olympus, Tokyo, Japan).
as §5

A further data set relates to phospho-IKKα/β. Put plainly: Western blot phospho-IKKα/β in dTHP-1 cells. The class given is cell-based, human. As to conditions: 7.5 µM; LPS-stimulated dTHP-1 cells. As for the experimental part:
as §4, §6

The test system of the next data set is TNFα production. Put plainly: TNFα production in LPS-activated dTHP-1 cells (ELISA). The class given is cell-based. The settings on record: Homo sapiens. On the procedure: as §7, §8
Where [3] appears, read: LPS-activated dTHP-1 cells, 24 h.

Entries after “also recorded” stand apart in the source; their conditions may differ.

T2 sequence (Q04759 whole entry): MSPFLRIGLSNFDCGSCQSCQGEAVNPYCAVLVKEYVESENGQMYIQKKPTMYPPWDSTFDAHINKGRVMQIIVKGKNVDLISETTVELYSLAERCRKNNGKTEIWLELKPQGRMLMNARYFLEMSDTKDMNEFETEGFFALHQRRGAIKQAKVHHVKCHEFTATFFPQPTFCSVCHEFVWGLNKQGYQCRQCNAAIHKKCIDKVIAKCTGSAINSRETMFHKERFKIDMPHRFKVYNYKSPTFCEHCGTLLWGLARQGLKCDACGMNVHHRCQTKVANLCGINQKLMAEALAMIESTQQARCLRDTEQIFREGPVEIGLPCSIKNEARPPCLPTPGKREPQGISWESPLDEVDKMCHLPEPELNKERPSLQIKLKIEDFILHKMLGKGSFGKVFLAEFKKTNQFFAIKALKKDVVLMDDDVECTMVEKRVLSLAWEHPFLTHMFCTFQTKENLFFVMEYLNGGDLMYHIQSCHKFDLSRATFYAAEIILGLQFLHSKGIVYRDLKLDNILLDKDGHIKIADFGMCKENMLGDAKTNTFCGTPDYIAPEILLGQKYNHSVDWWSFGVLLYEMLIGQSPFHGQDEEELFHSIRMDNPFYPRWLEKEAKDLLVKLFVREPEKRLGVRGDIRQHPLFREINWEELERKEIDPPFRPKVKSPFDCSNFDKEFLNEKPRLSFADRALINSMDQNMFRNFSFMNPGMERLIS

A word on the IC50: it is the midpoint of a concentration-inhibition curve. Low values mean higher potency, high ones lower potency. Usually melting point stands for the temperature of the solid-liquid transition. Usually viability stands for a read-out of living cells in per cent, often relative to untreated cells. `S=C(Nc1ccc2ncnc(Nc3cccc(Cl)c3)c2c1)NC1CCCC1` [Compound 19, 1-(4-((3-Chlorophenyl)amino)quinazolin-6-yl)-3-cyclopentylthiourea]: the melting point lay within 229.1 to 231.6 °C. In addition, the inhibition at 10 µM in the data set with NF-κB (10 μM, mean ± SEM, n = 3, read-out: NF-κB Luciferase Activity Inh %) was determined as 92.5 ± 0.8%. In addition, the IC50 with NF-κB worked out at 2.3 µM. The molecule further gave an inhibition at 2 µM on TBK1 of 8%. In addition, the “% Inhibition at 2 µM, PRKCQ (PKC theta)” value on PRKCQ (PKC theta) is “n.i”. Further, the viability at 10 µM in data set [1] is 99.9 ± 1.6%. For the same molecule, in the data set with phospho-NF-κB p65 (S468), the “Phosphorylation of p65-Ser468” value is recorded as “significantly diminished phosphorylation of p65-Ser468”. Moreover, the “Phosphorylation of p65 at Ser536” value in the data set on phospho-NF-κB p65 (S536) is “not affected”. Besides, the inhibition at 7.5 µM with IL-6 production (7.5 μM, LPS 100 ng/mL for 24 h, dTHP-1 cells, read-out: IL-6 Production Inh % (7.5 μM)) is 92.7 ± 5.5%. Further, the inhibition at 15 µM with IL-6 production (15 μM, LPS 100 ng/mL for 24 h, dTHP-1 cells, read-out: IL-6 Production Inh % (15 μM)) worked out at 98.3 ± 0.28%. This molecule also displayed an IC50 in the data set on IL-6 production (setting [3]) of 0.84 ± 0.12 µM. Further, the viability at 10 µM in data set [2] was found to be 118 ± 11.4%. The “LPS-induced nuclear translocation of NF-κB p65” value in the data set with NF-κB p65 is “inhibits the LPS-induced nuclear translocation of NF-κB p65; also recorded: clearly inhibited the nuclear translocation of NF-κB”. Also, the “Activation of IKKα/β (phospho-IKKα/β)” value with phospho-IKKα/β was “had no effects on IKKα/β-IκB signaling; also recorded: neither blocked the activation of IKKα/β”. In addition, in the data set on TNFα production (7.5 μM, LPS 100 ng/mL for 24 h, dTHP-1 cells, read-out: TNFα Production Inh % (7.5 μM)), the inhibition at 7.5 µM was 82.5 ± 5.6%. The inhibition at 15 µM in the data set on TNFα production (15 μM, LPS 100 ng/mL for 24 h, dTHP-1 cells, read-out: TNFα Production Inh % (15 μM)) stood at 91.5 ± 2.5%. Further, the IC50 in the data set with TNFα production (setting [3]) turned out to be 4 ± 0.2 µM.
